Holding throughout (test): NCI anticancer screen, dose series, 48 h
Experiment [1] concerns SN12C renal.
The test system of experiment [2] is HCT-15 colon.
Experiment [3] has as its system T-47D breast.
The subject of experiment [4] is MDA-MB-435.
In experiment [5] the test system is UO-31 renal.
Experiment [6] has as its system SNB-75 CNS.
The test system of experiment [7] is OVCAR-3 ovarian.
Experiment [8] relates to A549 NSCLC.
Experiment [9] relates to SK-OV-3 ovarian.
Experiment [10] concerns NCI-H460 lung.

Data on nine compounds can be found in PubChem BioAssay (NCI).

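Cells were grown in 96-well plates and exposed to each compound for 48 hours at five concentrations; endpoints were interpolated linearly between bracketing concentrations, or set to the highest concentration if not reached. GI50: concentration for 50% inhibition of growth. Definition used: TGI = concentration required for complete inhibition of growth.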 Where only a bound is given, the exact number is not on record here.

On to `O=C1NC(=NCCc2ccccc2F)S/C1=C\c1ccc2ncccc2c1`, for which the GI50 in experiment [1] is 8.18 µM; in [2], 1.84 µM; in [3], 9.55 µM; in [4], 1.57 µM; in experiment [5], 6.91 µM; in experiment [6] it was 5.34 µM. The GI50 in experiment [7] is 7.35 µM; in experiment [8], 5.39 µM; in [9], 7.82 µM; in [10], 6.57 µM. Also, the TGI is above 25 µM in [1]; above 25 µM in experiment [2]; above 25 µM in experiment [3]; above 16.8 µM in experiment [4]; above 25 µM in [5]; 19.1 µM in experiment [6]. Besides, the TGI in experiment [7] was 24.2 µM; in experiment [8] it was above 25 µM; in experiment [9] it was above 25 µM; in experiment [10], above 25 µM.
In the case of `CC1(C)CCC2(C(=O)O)C(O)CC3(C)C(=CCC4C5(C)CCC(OC6OCC(O)C(O)C6OC6OCC(O)C(O)C6OC6OCC(O)C(OC7OC(CO)C(O)C(O)C7O)C6O)C(C)(C)C5CCC43C)C2C1` (stereo not given), the TGI in experiment [1] was 76.5 µM; in experiment [2], above 100 µM; in experiment [3] it was above 100 µM; in [4], 93 µM; in [5], 35.3 µM; in experiment [6], 40.1 µM. For the same compound, the TGI in experiment [7] was above 100 µM; in [8], above 100 µM; in experiment [9], 40.2 µM; in experiment [10], above 100 µM.
For `C/C(=N\O)C1CC(CC(=O)O)C1(C)C` (stereo not given), the TGI in experiment [1], in experiment [2], in [3], in experiment [4], in experiment [5] and in [6] was above 100 µM throughout. Further, the TGI in experiment [7], in experiment [8], in [9] and in [10] was above 100 µM throughout.
Take `O=C(O)c1cc(-c2ccc(-c3ccccc3)cc2)nc2cc3ccccc3cc12`: the TGI in [1] was above 100 µM; in experiment [2] it was above 100 µM; in experiment [3], above 100 µM; in experiment [4] it was above 100 µM; in [5], above 100 µM; in experiment [6] it was 69.9 µM. The TGI in [7], in experiment [8], in experiment [9] and in [10] was above 100 µM each time.
Take `Cn1ccc(S(=O)(=O)N2CCC[C@H](Nc3nccc(-c4c(-c5cccc(O)c5)nc5occn45)n3)C2)n1`: the GI50 in experiment [1] is 8.01 µM; in [2], 22.3 µM; in experiment [3], 18.5 µM; in experiment [4] it was 0.329 µM; in experiment [5], 12.9 µM; in experiment [6], 1.9 µM. For the same compound, the GI50 is 13.5 µM in experiment [7], 13.2 µM in experiment [8], 5.71 µM in experiment [9] and 15.5 µM in experiment [10]. Moreover, the TGI was 51.7 µM in [1]; above 93.8 µM in experiment [2]; 70.5 µM in [3]; 29.3 µM in experiment [4]; 57.1 µM in experiment [5]; above 89 µM in [6]. Further, the TGI in [7] was determined as 51.9 µM; in experiment [8] it was 42.9 µM; in experiment [9], 49.6 µM; in experiment [10], 59.8 µM.
For the compound `CC(=O)CCC[C@@H](C)[C@@H]1O[C@H]([C@@]2(C)CCC(=O)O2)CC2[C@H]1OC(=O)C21CC1` (stereo not given in full), the GI50 in [1], in experiment [2], in experiment [3], in experiment [4], in [5] and in experiment [6] was above 100 µM throughout. The GI50 was above 100 µM in experiment [7], above 100 µM in [8], above 100 µM in [9] and 39.7 µM in experiment [10]. Further, the TGI in [1], in experiment [2], in [3], in [4], in experiment [5] and in experiment [6] was above 100 µM in each case. Moreover, the TGI in experiment [7], in experiment [8], in experiment [9] and in [10] was above 100 µM throughout.
With `COc1cccc(N2C(=N)/C(=C3\Nc4ccccc4S3)CC2=O)c1`, the GI50 in experiment [1] is above 100 µM; in experiment [2], 0.815 µM; in [3], 18.9 µM; in experiment [4] it was above 100 µM; in [5], 4.1 µM; in experiment [6], 10.3 µM. The GI50 in experiment [7] was 14.8 µM; in experiment [8], 5.49 µM; in [9] it was 1.77 µM; in [10] it was 2.89 µM. Further, the TGI in [1] is above 100 µM; in experiment [2], above 100 µM; in experiment [3], above 100 µM; in experiment [4], above 100 µM; in experiment [5] it was above 100 µM; in [6], 57.3 µM. The TGI is above 100 µM in experiment [7], above 100 µM in experiment [8], above 100 µM in experiment [9] and 26.3 µM in experiment [10].
Consider `c1ccc(C2=Nc3ccccc3N3CNN=C23)cc1`, for which the GI50 was above 100 µM in [1]; 90.6 µM in [2]; 74.8 µM in experiment [3]; above 100 µM in experiment [4]; above 100 µM in experiment [5]; 25.8 µM in experiment [6]. The GI50 is 84.4 µM in [7], above 100 µM in [8], above 100 µM in experiment [9] and above 100 µM in [10]. Moreover, the TGI in experiment [1] was above 100 µM; in experiment [2] it was above 100 µM; in experiment [3] it was above 100 µM; in experiment [4], above 100 µM; in [5], above 100 µM; in experiment [6], 86.6 µM. The TGI in experiment [7], in [8], in experiment [9] and in experiment [10] was above 100 µM throughout.
With `COc1cc(C2C=C(C)N=C3SC=C(C)N32)cc(OC)c1OC` (stereo not given), the GI50 in experiment [1] was 2.23 µM; in [2], 0.246 µM; in experiment [3], 1.91 µM; in experiment [4], 0.631 µM; in experiment [5] it was 1.13 µM; in experiment [6] it was 4.3 µM. Besides, the GI50 in [7] was 0.781 µM; in [8] it was 2.1 µM; in experiment [9] it was 2.91 µM; in experiment [10], 2.11 µM. For the same compound, the TGI in [1] turned out to be 7.53 µM; in experiment [2], 0.822 µM; in [3], 7.27 µM; in experiment [4], 6.45 µM; in experiment [5], 2.47 µM; in experiment [6] it was 20.1 µM. Besides, the TGI amounted to 7.66 µM in experiment [7], 6.56 µM in [8], 8.54 µM in experiment [9] and 7.33 µM in experiment [10].
